# According to patent publication US8518952B2, “6 substituted 2-heterocyclylamino pyrazine compounds as CHK-1 inhibitors” (Pfizer Inc., priority 2008, dated 2013):
# Where a name gives a salt, the structure may show the parent alone.
# Legend:
# [1] = system: Mia Paca-2 cells; experiment: Histone H3 (Ser10) phosphorylation ELISA, abrogation of camptothecin-induced G2 arrest (CHK-1 cellular assay); format: cell-based; settings: Homo sapiens, camptothecin 8 hrs, then compound with nocodozole 16 hours
# Description: The Histone H3 phosphorylation ELISA assay detects cells entering mitosis and represents the primary in vitro cell-based assay used to measure the cellular potency of compounds in abrogating the G2 check point induced by DNA damage in HeLa cells or MiaPaCa cells. The candidate substances were assayed for potency in their ability to inhibit camptothecin-induced G2 arrest, as measured by an increase in Histone H3 phosphorylation on Ser10, a marker of entry into mitosis.
# The PathScan Phospho-Histone H3 (Ser10) Sandwich ELISA kit was used (Cell Signaling, #7155) and the assay was performed according to manufacturer recommendations. Tissue culture plates were seeded with HeLa cells or MiaPaCa Cells and allowed to attach overnight. The cells were then treated with camptothecin to induce DNA damage for 8 hrs. Candidate substances or diluent were then added in the presence of nocodozole for 16 hours. Cells were then lysed with buffer from Assay Designs (#80-1114) supplemented with protease inhibitors and frozen overnight. The fresh whole cell lysates were then thawed and added to the ELISA plate with shaking for 3 hours. Between all subsequent steps plates were washed 4 times with PBST. Biotinylated phospho Histone H3 (ser10) detection antibody was added for 1 hour, followed by addition of horseradish peroxidase-linked streptavidin secondary antibody for 1 hour. Color development of the antibody was performed with addition of TMB substrate and incubation for 2 minutes on a plate shaker. Stop solution was added and plates were read with absorbance at 450 nm on a spectrophotometer. EC50 values were calculated by sigmoid curve fitting using a four-parameter analysis.
# Under the “Ki” column, data entries in the format of “%” are percent inhibition data where no Ki data is available. Data entry under the “EC50” column with an * are data obtained using Mia Paca-2 cells rather than HeLa cells. Data is not available where noted as n/a.
# [2] = molecular target: T1, CHK1 (kinase domain) (Homo sapiens, UniProt O14757); experiment: CHK1 Ki determination, spectrophotometric coupled (pyruvate kinase/lactate dehydrogenase) assay; format: biochemical; settings: CHK-1 kinase domain; 150 uM ATP, 125 uM Syntide 2
# T1 construct: a solution containing 1 nM of CHK1 (kinase domain)
# T1 sequence (O14757 9-265 limits assumed): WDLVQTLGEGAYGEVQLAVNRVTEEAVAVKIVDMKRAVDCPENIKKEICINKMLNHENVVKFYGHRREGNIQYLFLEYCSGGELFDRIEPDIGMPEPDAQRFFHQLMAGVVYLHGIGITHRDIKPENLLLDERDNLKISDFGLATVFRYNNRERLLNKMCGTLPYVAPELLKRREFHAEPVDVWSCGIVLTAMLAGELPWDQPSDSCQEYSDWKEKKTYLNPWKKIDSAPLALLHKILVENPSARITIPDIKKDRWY
# Summary of the method: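 The CHK1 kinase domain was pre-incubated with compound for 15 min, and the reaction was started with 125 uM Syntide 2 and 150 uM ATP. ADP formation was coupled through pyruvate kinase/lactate dehydrogenase to NADH oxidation, read as the A340 decrease. Kiapp was fitted with a tight-binding equation that accounts for enzyme concentration and ATP Km; some entries are % inhibition.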
# [3] = Mia Paca-2 cells (entries marked *)
# [4] = MIA PaCa-2, Mia Paca-2 cells (entries marked *)
"EC50 [1, 3] [µM]",Ki [2] [µM],"EC50 [1, 4] [µM]",SMILES
–,0.00254,0.00459,"COc1ccn2c(-c3cncc(N[C@H]4CNC[C@H]4C4CC4)n3)cnc2c1 [Example 211, N-[(3R,4R)-4-cyclopropylpyrrolidin-3-yl]-6-(7-methoxyimidazo[1,2-a]pyridin-3-yl)pyrazin-2-amine]"
0.479,0.0876,–,"COC[C@@H]1C[C@@H](Nc2cncc(-c3cnc4cc(F)ccn34)n2)CN1 [Example 236, 6-(7-fluoroimidazo[1,2-a]pyridin-3-yl)-N-[(3R,5S)-5-(methoxymethyl)pyrrolidin-3-yl]pyrazin-2-amine]"
0.0871,0.0049,–,"OC[C@@H]1C[C@@H](Nc2cncc(-c3cnc4ccccn34)n2)CN1 [Example 238, [(2S,4R)-4-{[6-(imidazo[1,2-a]pyridin-3-yl)pyrazin-2-yl]amino}pyrrolidin-2-yl]methanol]"
0.201,0.0722,–,"COC[C@@H]1C[C@@H](Nc2cncc(-c3cnc4cc(C)ccn34)n2)CN1 [Example 239, N-[(3R,5S)-5-(methoxymethyl)pyrrolidin-3-yl]-6-(7-methylimidazo[1,2-a]pyridin-3-yl)pyrazin-2-amine]"
0.171,0.0616,–,"Cc1ccn2c(-c3cncc(N[C@H]4CN[C@H](COC(C)C)C4)n3)cnc2c1 [Example 240, 6-(7-methylimidazo[1,2-a]pyridin-3-yl)-N-{(3R,5S)-5-[(propan-2-yloxy)methyl]pyrrolidin-3-yl}pyrazin-2-amine]"
0.201,0.045,–,"CCOC[C@@H]1C[C@@H](Nc2cncc(-c3cnc4cc(C)ccn34)n2)CN1 [Example 241, N-[(3R,5S)-5-(ethoxymethyl)pyrrolidin-3-yl]-6-(7-methylimidazo[1,2-a]pyridin-3-yl)pyrazin-2-amine]"
0.129,0.028,–,"COc1ccn2c(-c3cncc(N[C@H]4CN[C@H](COC(C)C)C4)n3)cnc2c1 [Example 242, 6-(7-methoxyimidazo[1,2-a]pyridin-3-yl)-N-{(3R,5S)-5-[(propan-2-yloxy)methyl]pyrrolidin-3-yl}pyrazin-2-amine]"
0.172,0.0248,–,"CCOC[C@@H]1C[C@@H](Nc2cncc(-c3cnc4cc(OC)ccn34)n2)CN1 [Example 243, N-[(3R,5S)-5-(ethoxymethyl)pyrrolidin-3-yl]-6-(7-methoxyimidazo[1,2-a]pyridin-3-yl)pyrazin-2-amine]"
0.0603,0.0159,–,"COC[C@@H]1C[C@@H](Nc2cncc(-c3cnc4cc(Cl)ccn34)n2)CN1 [Example 244, 6-(7-chloroimidazo[1,2-a]pyridin-3-yl)-N-[(3R,5S)-5-(methoxymethyl)pyrrolidin-3-yl]pyrazin-2-amine]"
0.0859,0.00472,–,"OC[C@@H]1C[C@@H](Nc2cncc(-c3cnc4cc(Cl)ccn34)n2)CN1 [Example 245, [(2S,4R)-4-{[6-(7-chloroimidazo[1,2-a]pyridin-3-yl)pyrazin-2-yl]amino}pyrrolidin-2-yl]methanol]"

# Further lines, the compound ahead of its results:
SMILES,"EC50 [1, 3] [µM]",Ki [2] [µM],"EC50 [1, 4] [µM]"
"C[C@@H]1CCNC[C@@H]1Nc1cncc(-c2cnn3ccccc23)n1 [Example 206, N-[(3R,4R)-4-methylpiperidin-3-yl]-6-(pyrazolo[1,5-a]pyridin-3-yl)pyrazin-2-amine]",0.24,0.0482,–
"CCOc1ccc2c(c1)ncn2-c1cncc(N[C@@H]2CCCNC2)n1 [Example 214, 6-(5-ethoxy-1H-benzimidazol-1-yl)-N-[(3R)-piperidin-3-yl]pyrazin-2-amine]",0.0122,0.000935,–
"CCOc1ccc2c(c1)ncn2-c1cncc(N[C@@H]2CCNC2)n1 [Example 217, 6-(5-ethoxy-1H-benzimidazol-1-yl)-N-[(3R)-pyrrolidin-3-yl]pyrazin-2-amine]",0.0364,0.00699,–
"C[C@@H]1NCCC[C@H]1Nc1cncc(-c2cnc3ccc(Cl)cn23)n1 [Example 225, 6-(6-chloroimidazo[1,2-a]pyridin-3-yl)-N-[(2S,3R)-2-methylpiperidin-3-yl]pyrazin-2-amine]",–,0.0179,0.0649
"C[C@H]1NCCC[C@H]1Nc1cncc(-c2cnc3ccc(Cl)cn23)n1 [Example 226, 6-(6-chloroimidazo[1,2-a]pyridin-3-yl)-N-[(2R,3R)-2-methylpiperidin-3-yl]pyrazin-2-amine]",–,0.0046,0.00717
"C[C@@H]1NCCC[C@H]1Nc1cncc(-c2cnc3ccc(C(F)(F)F)cn23)n1 [Example 227, N-[(2S,3R)-2-methylpiperidin-3-yl]-6-[6-(trifluoromethyl)imidazo[1,2-a]pyridin-3-yl]pyrazin-2-amine]",–,0.092,1
"C[C@H]1NCCC[C@H]1Nc1cncc(-c2cnc3ccc(C(F)(F)F)cn23)n1 [Example 228, N-[(2R,3R)-2-methylpiperidin-3-yl]-6-[6-(trifluoromethyl)imidazo[1,2-a]pyridin-3-yl]pyrazin-2-amine]",–,0.0065,0.0245
"C[C@@H]1CNC[C@@H]1Nc1cncc(-c2cnc3ccc(Cl)cn23)n1 [Example 229, 6-(6-chloroimidazo[1,2-a]pyridin-3-yl)-N-[(3R,4R)-4-methylpyrrolidin-3-yl]pyrazin-2-amine]",0.00975,0.0044,–
"FC1(F)CCNCC1Nc1cncc(-c2cnc3ccc(Cl)cn23)n1 (stereo not shown) [Example 230, 6-(6-chloroimidazo[1,2-a]pyridin-3-yl)-N-(4,4-difluoropiperidin-3-yl)pyrazin-2-amine]",–,0.0092,0.0768
"FC(F)(F)c1ccc2ncc(-c3cncc(NC4CNCCC4(F)F)n3)n2c1 (stereo not shown) [Example 231, N-(4,4-difluoropiperidin-3-yl)-6-[6-(trifluoromethyl)imidazo[1,2-a]pyridin-3-yl]pyrazin-2-amine]",–,0.0286,20
"CC(C)(O)c1ccc2ncc(-c3cncc(N[C@@H]4CCCNC4)n3)n2c1 [Example 232, 2-(3-{6-[(3R)-piperidin-3-ylamino]pyrazin-2-yl}imidazo[1,2-a]pyridin-6-yl)propan-2-ol]",–,0.0026,0.1
"Nc1ccc2ncc(-c3cncc(N[C@@H]4CCCNC4)n3)n2c1 [Example 233, 3-{6-[(3R)-piperidin-3-ylamino]pyrazin-2-yl}imidazo[1,2-a]pyridin-6-amine]",–,0.0034,0.0755
"C[C@@H]1CNC[C@@H]1Nc1cncc(-n2cnc3cc(OCC4(C)COC4)ccc32)n1 [Example 234, 6-{5-[(3-methyloxetan-3-yl)methoxy]-1H-benzimidazol-1-yl}-N-[(3R,4R)-4-methylpyrrolidin-3-yl]pyrazin-2-amine]",0.0899,0.0025,–
"Fc1ccn2c(-c3cncc(N[C@@H]4CCCNC4)n3)cnc2c1 [Example 235, 6-(7-fluoroimidazo[1,2-a]pyridin-3-yl)-N-[(3R)-piperidin-3-yl]pyrazin-2-amine]",–,0.0068,0.0679
"Cc1cn2c(-c3cncc(N[C@H]4CN[C@H](CO)C4)n3)cnc2s1 [Example 237, [(2S,4R)-4-{[6-(2-methylimidazo[2,1-b][1,3]thiazol-5-yl)pyrazin-2-yl]amino}pyrrolidin-2-yl]methanol]",0.0467,0.00298,–
"Cc1ncc(N[C@@H]2CCCNC2)nc1-c1cnc2ccccn12 [Example 247, 6-(imidazo[1,2-a]pyridin-3-yl)-5-methyl-N-[(3R)-piperidin-3-yl]pyrazin-2-amine]",–,0.192,1.11
"CO[C@@H]1CNC[C@@H](Nc2cncc(-c3cnc4ccccn34)n2)C1 [Example 250, 6-(imidazo[1,2-a]pyridin-3-yl)-N-[(3S,5S)-5-methoxypiperidin-3-yl]pyrazin-2-amine]",–,0.0488,1.62
"c1cn2ncc(-c3cncc(N[C@@H]4CCCNC4)n3)c2cn1 [Example 251, N-[(3R)-piperidin-3-yl]-6-(pyrazolo[1,5-a]pyrazin-3-yl)pyrazin-2-amine, acetate salt]",0.255,0.01,–
"C[C@H]1NCCC[C@H]1Nc1cncc(-c2cnn3ccncc23)n1 [Example 252, N-[(2R,3R)-2-methylpiperidin-3-yl]-6-(pyrazolo[1,5-a]pyrazin-3-yl)pyrazin-2-amine, acetate salt]",1.11,0.0693,–
